Results published in ChEMBL document CHEMBL1135367, “Evaluation of isotryptamine derivatives at 5-HT(2) serotonin receptors” (Bioorg Med Chem Lett, 2002).
pKi: −log10 of the molar value.

Assays:
[1] = target: T1, 5-hydroxytryptamine receptor 2A (Homo sapiens, UniProt P28223); test: Displacement of [3H]ketanserin from human 5-hydroxytryptamine 2A receptor
[2] = target: T2, 5-hydroxytryptamine receptor 2C (Homo sapiens, UniProt P28335); test: Binding affinity towards human 5-hydroxytryptamine 2C receptor.
T2 sequence (P28335 whole entry): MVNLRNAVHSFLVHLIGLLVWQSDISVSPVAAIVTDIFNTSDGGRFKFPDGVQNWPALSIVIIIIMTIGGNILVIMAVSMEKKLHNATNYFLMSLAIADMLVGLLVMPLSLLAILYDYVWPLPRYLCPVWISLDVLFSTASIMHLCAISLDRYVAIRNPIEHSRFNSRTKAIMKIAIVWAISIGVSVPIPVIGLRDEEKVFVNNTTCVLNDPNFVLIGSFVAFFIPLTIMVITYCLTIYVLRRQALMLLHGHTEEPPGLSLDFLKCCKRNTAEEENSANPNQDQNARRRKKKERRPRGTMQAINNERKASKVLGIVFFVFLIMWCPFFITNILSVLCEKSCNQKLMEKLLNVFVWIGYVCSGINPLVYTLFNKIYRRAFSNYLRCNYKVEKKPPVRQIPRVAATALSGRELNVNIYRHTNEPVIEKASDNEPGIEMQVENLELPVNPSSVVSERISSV

[3] = target: T1, 5-hydroxytryptamine receptor 2A; test: Displacement of [3H]DOB from human 5-hydroxytryptamine 2A receptor
[4] = target: Serotonin 2 receptors; 5-HT2a & 5-HT2c (Homo sapiens) (UniProt P28223+P28335); test: Relative affinity for human 5-HT2C and 5-HT2A receptors; format: protein assay
[5] = target: T1, 5-hydroxytryptamine receptor 2A; test: Tested for binding affinity towards 5-hydroxytryptamine 2A receptor
[6] = target: T1, 5-hydroxytryptamine receptor 2A; test: Tested for binding affinity towards human 5-hydroxytryptamine 2A receptor using [3H]5-HT as radioligand
[7] = target: T3, 5-hydroxytryptamine receptor 2A (Rattus norvegicus, UniProt P14842); test: Tested for binding affinity towards rat 5-hydroxytryptamine 2A receptor using [3H]ketanserin as radioligand
[8] = target: T1, 5-hydroxytryptamine receptor 2A; test: Tested for binding affinity towards human 5-hydroxytryptamine 2A receptor using [3H]DOB as radioligand
[9] = target: T2, 5-hydroxytryptamine receptor 2C; test: Tested for binding affinity towards human 5-hydroxytryptamine 2C receptor using [3H]mesulergine as radioligand
[10] = target: T2, 5-hydroxytryptamine receptor 2C; test: Tested for binding affinity towards human 5-hydroxytryptamine 2C receptor using [3H]DOB as radioligand
[11] = target: T2, 5-hydroxytryptamine receptor 2C; test: Tested for binding affinity towards human 5-hydroxytryptamine 2C receptor using [3H]5-HT as radioligand
[12] = target: T3, 5-hydroxytryptamine receptor 2A; test: Tested for binding affinity towards rat 5-hydroxytryptamine 2A receptor using [3H]DOB as radioligand
[13] = target: T2, 5-hydroxytryptamine receptor 2C; test: Tested for binding affinity towards 5-HT2c receptor

T1 sequence (P28223 whole entry): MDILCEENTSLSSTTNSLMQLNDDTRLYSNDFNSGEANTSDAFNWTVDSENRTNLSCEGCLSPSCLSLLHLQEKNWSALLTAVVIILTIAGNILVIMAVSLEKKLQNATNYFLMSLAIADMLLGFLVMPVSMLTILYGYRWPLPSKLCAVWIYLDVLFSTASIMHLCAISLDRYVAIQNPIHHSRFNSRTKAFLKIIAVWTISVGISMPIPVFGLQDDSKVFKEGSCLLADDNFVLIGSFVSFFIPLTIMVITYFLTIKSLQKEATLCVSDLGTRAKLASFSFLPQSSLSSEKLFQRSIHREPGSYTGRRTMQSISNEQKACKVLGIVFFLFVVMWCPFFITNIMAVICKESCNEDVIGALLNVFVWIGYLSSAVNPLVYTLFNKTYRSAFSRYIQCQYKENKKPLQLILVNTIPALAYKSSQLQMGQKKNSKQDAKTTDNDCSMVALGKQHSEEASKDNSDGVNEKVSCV
Serotonin 2 receptors; 5-HT2a & 5-HT2c (Homo sapiens), sequence (P28223 whole entry, looked up, one chain of several): as the sequence (P28223 whole entry) above
T3 sequence (P14842 whole entry): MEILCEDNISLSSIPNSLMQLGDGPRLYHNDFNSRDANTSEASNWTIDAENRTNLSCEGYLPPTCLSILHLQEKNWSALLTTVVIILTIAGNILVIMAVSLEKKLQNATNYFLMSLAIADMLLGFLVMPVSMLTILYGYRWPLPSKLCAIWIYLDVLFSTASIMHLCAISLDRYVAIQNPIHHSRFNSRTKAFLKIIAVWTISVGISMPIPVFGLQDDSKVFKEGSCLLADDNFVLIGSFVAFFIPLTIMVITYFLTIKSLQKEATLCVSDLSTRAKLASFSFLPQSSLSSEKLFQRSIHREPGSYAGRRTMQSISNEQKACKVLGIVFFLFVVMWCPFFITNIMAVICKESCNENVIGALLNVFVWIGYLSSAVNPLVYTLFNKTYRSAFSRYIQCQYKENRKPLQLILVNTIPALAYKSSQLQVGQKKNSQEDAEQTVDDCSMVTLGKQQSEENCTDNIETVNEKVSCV

| pKi [1] | pKi [3] | Selectivity [4] | Structure (SMILES) | pKi [2] | further results |
| --- | --- | --- | --- | --- | --- |
| 5.78 | 6.49 | 4.6 | Clc1ccc2c(c1)cc1n2CCNC1 | 5.84 |  |
|  |  |  | CC(N)Cn1ccc2ccc3ccccc3c21 (stereo not given) | 7.38 | pKi [5]: 7.42 |
|  |  |  | CC(CN)n1ccc2ccc3ccccc3c21 (stereo not given) | < 5.00 | pKi [5]: 5.37 |
| 5.90 |  |  | Cc1c2n(c3ccc(Cl)cc13)CCNC2 |  | pKi [13]: 6.35 |
| 5.98 | 6.20 | 7.5 | c1ccc2c(c1)cc1n2CCNC1 | 5.32 |  |
| 6.89 | 7.22 | 5.5 | COc1c2n(c3ccc(Cl)cc13)CCNC2 | 6.48 |  |
|  |  |  | CC(N)Cc1c[nH]c2ccc3ccccc3c12 (stereo not given) | 8.05 | pKi [5]: 8.52 |
| 5.23 | 6.03 | 10.7 | COc1ccc2c(c1)cc1n2CCNC1 | 5.00 |  |
| 5.28 | 5.89 | 4 | COc1ccc2cc3n(c2c1)CCNC3 | 5.29 |  |
| 7.24 | 7.10 | 7 | Clc1ccc2cc3n(c2c1)CCNC3 | 6.25 |  |
| 6.20 | 6.48 | 1.6 | Clc1cccc2cc3n(c12)CCNC3 | 6.28 |  |
| 6.00 | 6.52 | 6.6 | COc1cccc2cc3n(c12)CCNC3 | 5.70 |  |

| Structure (SMILES) | pKi [1] | pKi [3] | Selectivity [4] | pKi [2] | further results |
| --- | --- | --- | --- | --- | --- |
| CN(C)CCn1ccc2cc(F)c(F)cc21 | 6.19 | 6.64 | 1.3 | 6.52 |  |
| c1ccc2c(c1)nc1n2CCNC1 | < 5.00 | < 5.00 |  | < 5.00 |  |
| C[C@H](N)Cn1ccc2cc(F)c(F)cc21 |  |  | 5.7 | 7.07 | pKi [6]: 7.92; pKi [7]: 6.49; pKi [8]: 7.41; pKi [9]: 7.07; pKi [10]: 8.41; pKi [11]: 8.42; pKi [12]: 7.82 |
| COc1ccc2ccn(CCN(C)C)c2c1 | 5.98 |  |  | 6.31 |  |
| CN(C)CCn1ccc2ccccc21 | 6.22 | 6.19 | 1.1 | 6.14 |  |
| COc1ccc2c(ccn2CCN(C)C)c1 | < 5.00 | < 5.00 |  | < 5.00 |  |
